The values that follow come from patent publication US4859664A, “Derivatives of 2,3,4,5,6,7-hexahydro-2,7-methano-1,5-benzoxazonines and -1,4-benzoxazonines, processes for their production and their use as pharmaceuticals” (priority 1986, dated 1989).

A short description of data set [1]: influencing of the amphetamine group toxicity. In kind it is in vivo, male NMRI mice. The method, then: (§1) […]. They were given a standard feed and water ad libitum up to the commencement of the experiments.
(§2) The test compounds were administered in a volume of 10 ml./kg./body weight per mouse. As carrier, there was used physiological sodium chloride solution or a suspension of 0.5% tragacanth in physiological sodium chloride solution.
3. Influencing of the amphetamine group toxicity.
There was investigated the influence of the test compounds on the mortality of amphetamine-treated, aggregated mice. The dosaging of d-amphetamine was 15 mg./kg., which should permit the recognition not only of a synergism but also of an antagonism towards a sympathomimetic compound. Carrying out the experiment:
30 minutes after the subcutaneous administration of the test substance, the animals received subcutaneously 15 mg./kg. of d-amphetamine sulphate. The number of dead animals was recorded after 2, 4 and 7 hours. For the maintenance of the group size, the dead animals were replaced by untreated animals (6 animals/dosage group).

The format of data set [2] is in vivo, male NMRI mice. The conditions noted are these: s.c. increasing dosages over 2 days, naloxone i.p.; for % of reacting animals: 10 minutes. How it is done:
as §1, §2
2. Development of dependency.
Withdrawal jumps of the mouse (see J. K. Saelens et al., Arch. Int. Pharmacodyn. Ther., 190, 213/1971).
Mice which were dependent upon morphine or other opiates react, when treated with morphine antagonists, with a flight reaction (see F. Huidobro and C. Maggiolo, Arch. Int. Pharmacodyn. Ther., 158, 97/1965); E. L. Way et al., Science, 162, 1290/1968). This flight reaction manifests itself in very vigorous jumping reactions which continue for about 10 minutes. From the number of reacting animals and especially from the jump frequency per animal, there can be deduced the strength of the withdrawal symptoms and thus the degree of dependency upon the test compound. Carrying out of the test:
The test and standard compounds were administered subcutaneously according to the scheme shown in the following Table III in increasing dosages over the course of 2 days.
For the provocation of the withdrawal jumps, the animals received intraperitoneally, 2 hours after the last compound administration, 30 mg./kg. naloxone hydrochloride.
Immediately after the administration of the naloxone, the animals were placed individually in a 5 liter glass beaker. Subsequently, the number of jump movements was recorded during the course of 10 minutes. For evaluation, the number of animals reacting the withdrawal jumps, as well as the average number of jumps per animal, was used.
The animals of the naloxone control group were, up to the administration of naloxone, treated with a 0.9% aqueous solution of sodium chloride (6 animals/dosage group).

The nature of data set [3]: influencing of hexobarbital narcosis. In kind it is in vivo, male NMRI mice. As to conditions: for period of narcosis ± SEM: hexobarbital sodium 100 mg./kg. i.p. How it is done:
as §1, §2
The experimental results are given as average values with a mean error of the average value (x±S.E.M.). The ED50 values were calculated according to Litchfield and Wilcoxon (J. Pharmacol. Exp. Ther., 96, 99/1949). The compounds were thereby tested in 4 dosages (p≤0.5).
4. Influencing of hexobarbital narcosis.
The test compounds were administered subcutaneously to 5 animals per dosage group. After 30 minutes, 100 mg./kg. hexobarbital sodium was administered intraperitoneally. 2 to 3 minutes after this injection, the animals allowed themselves to be laid on their backs. For each animal, there was measured the time in minutes from the commencement of the back position up to the time when the animals themselves twice successively again assumed the abdominal position.

[4] abbreviates: 25 mg/kg s.c. + d-amphetamine sulphate 15 mg./kg. s.c.
Where [5] appears, read: 50 mg/kg s.c. + d-amphetamine sulphate 15 mg./kg. s.c.

Consider `CC12CCNCC(C1)c1ccccc1O2` (stereo not shown) [Example 6, 2,3,4,5,6,7-hexahydro-2-methyl-2,7-methano-1,5-benzoxazonine], for which, in data set [1] (setting [4]), the “% of deceased animals after 2 hrs.” value was 0%; the “% of deceased animals after 4 hrs.” value stood at 0%; the “% of deceased animals after 7 hrs.” value was 16.7%; the “% of deceased animals, total” value is 16.7%. In addition, in data set [1] (setting [5]), the “% of deceased animals after 2 hrs.” value amounted to 0%; the “% of deceased animals after 4 hrs.” value is listed as 16.7%; the “% of deceased animals after 7 hrs.” value is recorded as 0%; the “% of deceased animals, total” value is on record as 16.7%. Besides, in data set [2], the “average number of jumps/animal/10 minutes” value is 0 and the “% of reacting animals” value is given as 0%.

Regarding `CC1NCCC2(C)CC1c1ccccc1O2` (stereo not shown) [Example 9, 2,3,4,5,6,7-hexahydro-2,6-dimethyl-2,7-methano-1,5-benzoxazonine], in data set [1] (setting [4]), the “% of deceased animals after 2 hrs.” value is on record as 16.7%; the “% of deceased animals after 4 hrs.” value turned out to be 0%; the “% of deceased animals after 7 hrs.” value worked out at 0%; the “% of deceased animals, total” value stood at 16.7%. Further, in data set [1] (setting [5]), the “% of deceased animals after 2 hrs.” value stood at 0%; the “% of deceased animals after 4 hrs.” value amounted to 0%; the “% of deceased animals after 7 hrs.” value worked out at 33.3%; the “% of deceased animals, total” value turned out to be 33.3%. In addition, in data set [3] (25 mg/kg sc), the “change with regard to hexabarbital sodium” value is -29.4 min and the “period of narcosis ± SEM” value amounted to 63 ± 21.0 min. In addition, the “effect on period of narcosis” value in data set [3] (50 mg./kg.) is reported as “statistically verified shortening of the period of narcosis”. Besides, in data set [3] (50 mg/kg sc), the “change with regard to hexabarbital sodium” value was -53.4 min and the “period of narcosis ± SEM” value worked out at 39 ± 12.4 min. In addition, in data set [2], the “average number of jumps/animal/10 minutes” value turned out to be 0 and the “% of reacting animals” value is recorded as 0%.
